How the values were obtained:
[1] = target: T1, Progesterone receptor (Oryctolagus cuniculus) (UniProt P06186); test: Binding to rabbit uterine progesterone receptor compared to progesterone
T1 sequence (whole entry): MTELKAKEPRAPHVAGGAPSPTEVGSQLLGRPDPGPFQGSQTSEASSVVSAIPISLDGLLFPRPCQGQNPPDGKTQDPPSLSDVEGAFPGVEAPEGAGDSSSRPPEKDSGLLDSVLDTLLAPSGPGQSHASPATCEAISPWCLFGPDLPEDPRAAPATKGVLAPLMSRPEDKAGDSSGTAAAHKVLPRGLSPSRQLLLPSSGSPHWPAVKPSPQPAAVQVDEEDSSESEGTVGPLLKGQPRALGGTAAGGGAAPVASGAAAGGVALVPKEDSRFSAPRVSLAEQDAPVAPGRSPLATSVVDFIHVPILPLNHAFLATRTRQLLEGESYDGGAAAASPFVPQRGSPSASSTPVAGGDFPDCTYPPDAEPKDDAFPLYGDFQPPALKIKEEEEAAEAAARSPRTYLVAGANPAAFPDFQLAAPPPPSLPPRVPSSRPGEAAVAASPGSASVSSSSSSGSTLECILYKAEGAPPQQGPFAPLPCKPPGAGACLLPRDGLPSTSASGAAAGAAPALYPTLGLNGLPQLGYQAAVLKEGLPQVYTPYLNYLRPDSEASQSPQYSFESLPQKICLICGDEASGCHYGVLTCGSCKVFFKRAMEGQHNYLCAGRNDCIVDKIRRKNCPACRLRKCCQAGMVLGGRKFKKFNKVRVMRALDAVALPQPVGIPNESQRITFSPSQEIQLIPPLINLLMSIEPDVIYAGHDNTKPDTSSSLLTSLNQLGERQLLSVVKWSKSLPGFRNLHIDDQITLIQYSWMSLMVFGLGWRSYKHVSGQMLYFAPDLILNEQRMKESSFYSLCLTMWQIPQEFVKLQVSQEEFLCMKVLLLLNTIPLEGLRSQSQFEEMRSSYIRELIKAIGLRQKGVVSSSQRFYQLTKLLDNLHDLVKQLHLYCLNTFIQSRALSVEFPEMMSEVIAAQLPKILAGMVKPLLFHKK

[2] = target: T2, Mineralocorticoid receptor (Rattus norvegicus) (UniProt P22199); test: Anti-aldosterone effect on the urinary Na/K ratio in Wistar rats compared to spironolactone; assay type: functional; conditions: Urine
T2 sequence (whole entry): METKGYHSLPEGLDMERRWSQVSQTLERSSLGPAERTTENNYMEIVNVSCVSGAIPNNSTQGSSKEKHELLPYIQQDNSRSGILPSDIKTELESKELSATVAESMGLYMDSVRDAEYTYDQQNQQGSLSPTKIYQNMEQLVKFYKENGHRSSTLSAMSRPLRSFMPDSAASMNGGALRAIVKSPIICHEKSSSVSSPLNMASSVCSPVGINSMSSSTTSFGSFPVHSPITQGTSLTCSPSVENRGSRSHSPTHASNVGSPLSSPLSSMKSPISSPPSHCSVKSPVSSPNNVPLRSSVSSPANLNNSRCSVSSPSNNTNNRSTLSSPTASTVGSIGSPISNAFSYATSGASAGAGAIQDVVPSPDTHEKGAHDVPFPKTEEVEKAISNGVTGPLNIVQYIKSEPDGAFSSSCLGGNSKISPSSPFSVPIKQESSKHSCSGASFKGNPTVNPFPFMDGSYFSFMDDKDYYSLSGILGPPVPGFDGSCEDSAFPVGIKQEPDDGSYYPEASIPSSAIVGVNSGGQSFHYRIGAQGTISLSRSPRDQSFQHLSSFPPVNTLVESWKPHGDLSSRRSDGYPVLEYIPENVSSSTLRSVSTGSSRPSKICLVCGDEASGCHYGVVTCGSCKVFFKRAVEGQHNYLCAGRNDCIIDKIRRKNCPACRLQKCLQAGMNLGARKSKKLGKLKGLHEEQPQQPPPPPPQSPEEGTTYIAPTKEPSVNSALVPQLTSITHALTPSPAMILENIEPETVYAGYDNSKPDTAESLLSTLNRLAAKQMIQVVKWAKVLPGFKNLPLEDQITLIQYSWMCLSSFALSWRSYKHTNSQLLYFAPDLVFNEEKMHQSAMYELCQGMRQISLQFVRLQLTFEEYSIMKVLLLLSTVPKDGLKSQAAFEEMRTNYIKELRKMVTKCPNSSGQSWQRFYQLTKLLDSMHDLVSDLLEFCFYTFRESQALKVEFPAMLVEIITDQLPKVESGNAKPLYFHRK

[3] = target: T3, Androgen receptor (Rattus norvegicus) (UniProt P15207); test: Binding to rat prostate Androgen receptor compared to dihydrotestosterone; conditions: Prostate gland
T3 sequence (whole entry): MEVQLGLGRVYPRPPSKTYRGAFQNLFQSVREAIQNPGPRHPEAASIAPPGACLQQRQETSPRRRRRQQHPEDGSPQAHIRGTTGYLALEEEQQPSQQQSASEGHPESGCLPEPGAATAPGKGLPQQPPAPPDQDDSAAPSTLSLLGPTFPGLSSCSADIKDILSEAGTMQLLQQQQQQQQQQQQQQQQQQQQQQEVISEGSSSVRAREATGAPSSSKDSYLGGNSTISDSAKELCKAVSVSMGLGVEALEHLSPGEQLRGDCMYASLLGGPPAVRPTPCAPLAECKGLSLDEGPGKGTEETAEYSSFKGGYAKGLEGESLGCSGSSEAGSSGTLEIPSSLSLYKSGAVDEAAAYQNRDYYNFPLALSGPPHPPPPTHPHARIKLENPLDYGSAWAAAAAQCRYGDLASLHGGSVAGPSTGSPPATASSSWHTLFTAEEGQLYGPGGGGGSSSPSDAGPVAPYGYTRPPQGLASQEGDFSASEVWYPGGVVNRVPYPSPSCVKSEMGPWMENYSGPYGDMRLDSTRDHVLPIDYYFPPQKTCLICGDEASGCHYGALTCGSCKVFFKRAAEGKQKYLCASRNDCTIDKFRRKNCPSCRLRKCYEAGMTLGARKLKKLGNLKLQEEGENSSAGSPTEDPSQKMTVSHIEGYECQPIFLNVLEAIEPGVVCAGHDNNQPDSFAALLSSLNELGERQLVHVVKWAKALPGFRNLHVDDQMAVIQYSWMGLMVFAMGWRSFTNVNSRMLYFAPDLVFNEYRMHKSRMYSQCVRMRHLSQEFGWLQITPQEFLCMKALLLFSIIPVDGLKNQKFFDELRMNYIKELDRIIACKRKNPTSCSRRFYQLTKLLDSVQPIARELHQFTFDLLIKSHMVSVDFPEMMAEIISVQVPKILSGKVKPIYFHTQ

[4] = system: Rattus norvegicus; test: Ovulation inhibitory activity in rats after 100 mg oral dose; assay type: functional
[5] = target: T1, Progesterone receptor (Oryctolagus cuniculus); test: Progestational activity on oral administration (100 mg) in rabbit; assay type: functional, organism-based
[6] = target: T1, Progesterone receptor (Oryctolagus cuniculus); test: Progestational activity on oral administration (300 mg) in rabbit; assay type: functional, organism-based
[7] = target: T1, Progesterone receptor (Oryctolagus cuniculus); test: Progestational activity on oral administration (30 mg) in rabbit; assay type: functional, organism-based
[8] = target: T3, Androgen receptor (Rattus norvegicus); test: Anogenital distance in rats after 50 mg/animal oral dose in Fetal Feminization test (control = 2.30+/-0.16); assay type: functional
[9] = system: Rattus norvegicus; test: Ovulation inhibitory activity in rats after 30 mg oral dose; assay type: functional
[10] = target: T3, Androgen receptor (Rattus norvegicus); test: Weight of seminal vesicle as anti-androgenic activity in rat after oral dose of 24+0.1 mg/day with testosterone propionate(0.1 mg/day); assay type: functional
[11] = target: T3, Androgen receptor (Rattus norvegicus); test: Weight of prostate as anti-androgenic activity in rat after oral dose of 12+0.1 mg/day with testosterone propionate(0.1 mg/day); assay type: functional; conditions: Prostate gland
[12] = target: T3, Androgen receptor (Rattus norvegicus); test: Weight of prostate as anti-androgenic activity in rat after oral dose of 24+0.1 mg/day with testosterone propionate(0.1 mg/day); assay type: functional; conditions: Prostate gland
[13] = target: T3, Androgen receptor (Rattus norvegicus); test: Weight of seminal vesicle as anti-androgenic activity in rat after oral dose of 12+0.1 mg/day with testosterone propionate(0.1 mg/day); assay type: functional
[14] = target: T3, Androgen receptor (Rattus norvegicus); conditions: Prostate gland
Description: Weight of prostate as anti-androgenic activity in rat after oral dose of 48+0.1 mg/day with testosterone propionate(0.1 mg/day)

[15] = target: T3, Androgen receptor (Rattus norvegicus); conditions: Prostate gland; remark: listed apart in the source
Description: Weight of prostate as anti-androgenic activity in rat after oral dose of 96+0.1 mg/day with testosterone propionate(0.1 mg/day)

[16] = target: T3, Androgen receptor (Rattus norvegicus); conditions: Seminal vesicle
Description: Weight of seminal vesicle as anti-androgenic activity in rat after oral dose of 48+0.1 mg/day with testosterone propionate(0.1 mg/day)

[17] = target: T3, Androgen receptor (Rattus norvegicus); conditions: Seminal vesicle; remark: listed apart in the source
Description: Weight of seminal vesicle as anti-androgenic activity in rat after oral dose of 96+0.1 mg/day with testosterone propionate(0.1 mg/day)

| Compound | Competition factor [1] | Relative potency [2] | Competition factor [3] | other results |
| --- | --- | --- | --- | --- |
| CCOC(=O)[C@@H]1CC2=CC(=O)C=CC2(C)C2CCC3(C)C(C21)[C@@H]1C[C@@H]1C31CCC(=O)O1 (stereo partly specified) | 85 | < 50 |  |  |
| CC(C)OC(=O)[C@@H]1CC2=CC(=O)C=CC2(C)C2CCC3(C)C(C21)[C@@H]1C[C@@H]1C31CCC(=O)O1 (stereo partly specified) | 113 | < 50 | 266 |  |
| CC(=O)S[C@@H]1CC2=CC(=O)CC[C@]2(C)[C@H]2CC[C@@]3(C)[C@@H](CC[C@@]34CCC(=O)O4)[C@H]12 [SPIRONOLACTONE] |  |  |  | Inhibition [4]: 100% |
| CC(C)OC(=O)[C@@H]1CC2=CC(=O)[C@@H]3C[C@@H]3C2(C)C2CCC3(C)C(C21)[C@@H]1C[C@@H]1C31CCC(=O)O1 (stereo partly specified) | 19 | 140 | 40 |  |
| CCOC(=O)[C@@H]1CC2=CC(=O)[C@@H]3C[C@@H]3C2(C)C2CCC3(C)C(C21)[C@@H]1C[C@@H]1C31CCC(=O)O1 (stereo partly specified) | 34 | 187 | 28 |  |
| CCCOC(=O)[C@@H]1CC2=CC(=O)[C@@H]3C[C@@H]3C2(C)C2CCC3(C)C(C21)[C@@H]1C[C@@H]1C31CCC(=O)O1 (stereo partly specified) | 19 | 39 | 33 |  |
| COC(=O)[C@@H]1CC2=CC(=O)[C@@H]3C[C@@H]3C2(C)C2CCC3(C)C(C21)[C@@H]1C[C@@H]1C31CCC(=O)O1 (stereo partly specified) | 92 | 140 | 29 |  |

More lines, main results first:

| Competition factor [1] | Relative potency [2] | Competition factor [3] | Compound | other results |
| --- | --- | --- | --- | --- |
| 33 | < 50 | 98 | CCOC(=O)[C@@H]1CC2=CC(=O)CCC2(C)C2CCC3(C)C(C21)[C@@H]1C[C@@H]1C31CCC(=O)O1 (stereo partly specified) |  |
| 10 | 50 | 121 | COC(=O)[C@@H]1CC2=CC(=O)CCC2(C)C2CCC3(C)C(C21)[C@H]1C[C@H]1C31CCC(=O)O1 (stereo partly specified) |  |
| 25 | 217 | 112 | COC(=O)[C@@H]1CC2=CC(=O)CCC2(C)C2CCC3(C)C(C21)[C@@H]1C[C@@H]1C31CCC(=O)O1 (stereo partly specified) | McPhail index [5]: 1.8; McPhail index [6]: 1.8; McPhail index [7]: 1.4; Anogenital distance [8]: 2 mm; Inhibition [4]: 0%; Inhibition [9]: 0%; Organ weight [10]: 37 mg; Organ weight [11]: 38 mg; Organ weight [12]: 33 mg; Organ weight [13]: 44 mg; Organ weight [14]: 41 mg; Organ weight [15]: 30 mg; Organ weight [16]: 47 mg; Organ weight [17]: 42 mg |
| 130 | 104 | 142 | COC(=O)[C@@H]1CC2=CC(=O)CCC2(C)C2CCC3(C)C(CCC34CCC(=O)O4)C21 (stereo partly specified) |  |
| 12 | < 50 | 67 | CC(C)OC(=O)[C@@H]1CC2=CC(=O)CCC2(C)C2CCC3(C)C(C21)[C@@H]1C[C@@H]1C31CCC(=O)O1 (stereo partly specified) |  |
|  | < 50 |  | COC(=O)[C@@H]1CC2=CC(=O)C=CC2(C)C2CCC3(C)C(C21)[C@@H]1C[C@@H]1C31CCC(=O)O1 (stereo partly specified) |  |
| 98 | 140 | 53 | COC(=O)[C@@H]1CC2=CC(=O)[C@@H]3C[C@@H]3C2(C)C2CCC3(C)C(C21)[C@H]1C[C@H]1C31CCC(=O)O1 (stereo partly specified) |  |

Source: ChEMBL document CHEMBL1125151, “Aldosterone antagonists. 3. Synthesis and activities of steroidal 7 alpha-(alkoxycarbonyl)-15,16-methylene spirolactones” (1990)
